From PubChem BioAssay AID1996 come the findings set out here.

In brackets after ≈: the same amount, converted by molar mass. Some results are limits rather than exact numbers.

The conditions of the data set: buffer; pH 7.4; 200.0 µM.
The compound `CC1CCN(C(=S)c2ccc(N(C)C)cc2)CC1` came in with a solubility (kinetic) of 5.4 µg/mL (≈ 20.6 µM).

The compound `Cc1oc(S(=O)(=O)N2CCCCC2)cc1NC(=O)Nc1ccc(F)cc1` displayed a kinetic solubility of 5.5 µg/mL (≈ 14.4 µM).

`Cc1sc2ncnc(SCC(=O)Nc3ccc(S(=O)(=O)N4CCOCC4)cc3)c2c1C` came in with a solubility (kinetic) of 5.4 µg/mL (≈ 11.3 µM).

`O=C(O)c1ccc(NC(=O)c2ccc(COc3ccccc3)o2)cc1` gave a solubility (kinetic) of over 50.6 µg/mL.

For `COC(=O)CSc1nc(N)c(C#N)c(-c2ccc(O)cc2)c1C#N`, the solubility (kinetic) stood at 0.6 µg/mL (≈ 1.76 µM).

For `CCOCCn1c(-c2ccccc2)nc2ccccc21`, the kinetic solubility was determined as 39.5 µg/mL (≈ 148 µM).

`CC(CN1CCCC1)OC(=O)c1ccc(F)cc1.Cl` (stereo unspecified) displayed a kinetic solubility of over 43.2 µg/mL.

Regarding `Cn1cccc1C(=O)OCC(=O)NC1CCS(=O)(=O)C1` (stereo unspecified), the kinetic solubility is over 45 µg/mL.

With `COc1ccccc1CCNS(=O)(=O)c1cn(C)nc1C`, the solubility (kinetic) was over 46.4 µg/mL.

`CCN(CC)C(=O)CN1C(=O)NC2(CCc3ccccc3C2)C1=O` (stereo unspecified) displayed a solubility (kinetic) of over 49.4 µg/mL.

In turn, `COc1cccc(CSc2nc3ccncc3[nH]2)c1` showed a solubility (kinetic) of over 40.7 µg/mL.

`Cc1cccc(NC(=O)c2cc([N+](=O)[O-])ccc2N2CCCCC2)n1` registered a solubility (kinetic) of 0.4 µg/mL (≈ 1.18 µM).

In turn, `CC1SC(=S)N(c2ccc(N(C)C)cc2)C1=O` (stereo unspecified) had a solubility (kinetic) of 5.7 µg/mL (≈ 21.4 µM).

`CCN1CCN(C(CNS(=O)(=O)c2cccs2)c2cccnc2)CC1` (stereo unspecified) had a solubility (kinetic) of 49.3 µg/mL (≈ 130 µM).

The compound `CN(Cc1nc(-c2ccccc2)no1)C(=O)c1ccco1` registered a kinetic solubility of over 42.5 µg/mL.

Take `COc1ccccc1Nc1nc(NCC(C)C)nc(N)c1[N+](=O)[O-]`: the kinetic solubility turned out to be 0.3 µg/mL (≈ 0.903 µM).

`O=C(COC(=O)Cc1ccc(F)cc1)NC1CCCCC1` showed a kinetic solubility of over 44 µg/mL.

The compound `COc1ccc(OC)c(NC(=O)N2CCc3ccccc3C2)c1` gave a kinetic solubility of over 46.9 µg/mL.

`c1ccc(SCc2cn3cccnc3n2)nc1`: the solubility (kinetic) is over 36.3 µg/mL.

Turning to `COC(=O)c1c(C)[nH]c(C)c1C(C)=O`, the solubility (kinetic) was over 29.3 µg/mL.

On to `O=C(Nc1ccc(Br)cc1)N1CCCCCC1`, for which the solubility (kinetic) was found to be 7.6 µg/mL (≈ 25.6 µM).

Take `CCOc1ccc(N2CC(C(=O)NCc3ccccn3)CC2=O)cc1` (stereo unspecified): the kinetic solubility was 37.5 µg/mL (≈ 110 µM).

Compound `O=C(Nc1cccnc1)Nc1cccc(F)c1` gave a solubility (kinetic) of over 34.7 µg/mL.

`CCc1ccc(/C=C(\C#N)C(=O)NC2CCS(=O)(=O)C2)cc1` (stereo unspecified) gave a solubility (kinetic) of 7.8 µg/mL (≈ 24.5 µM).

`Cc1nn(CC(=O)N2CCN(C(=O)c3ccco3)CC2)c(C)c1[N+](=O)[O-]` came in with a solubility (kinetic) of over 54.2 µg/mL.

For `N#CCCN(Cc1ccccc1)C(=S)Nc1ccc(F)cc1`, the solubility (kinetic) worked out at 28.8 µg/mL (≈ 91.9 µM).

`N#C/C(=C(/O)c1ccc(C(=O)c2ccccc2)cc1)c1nc2ccccc2[nH]1` displayed a kinetic solubility of under 0.3 µg/mL.

`CCc1ccc(-c2nc(CS(=O)CC(=O)O)c(C)o2)cc1` (stereo unspecified) yielded a kinetic solubility of 46 µg/mL (≈ 150 µM).

For `O=C(CN1C(=O)NC2(CCCCCC2)C1=O)c1cccs1`, the solubility (kinetic) is over 46 µg/mL.

As for `CC1=CC(C)(C)NC(=S)N1NC(=O)c1ccccc1Cl`, the solubility (kinetic) is over 46.5 µg/mL.

`O=C1OC(Nc2ccc(F)c([N+](=O)[O-])c2)c2ccccc21` (stereo unspecified): the kinetic solubility was found to be 42.6 µg/mL (≈ 148 µM).

For the compound `CN(C(=O)CO/N=C/c1ccc(Cl)cc1)c1ccccc1`, the solubility (kinetic) was 44.6 µg/mL (≈ 147 µM).

Take `Cc1ccc(S(C)(=O)=O)cc1C(=O)NC(C)C1CC2CCC1C2` (stereo unspecified): the kinetic solubility amounted to 47.8 µg/mL (≈ 142 µM). This solubility kinetic and that of the compound before are within 1.5-fold of each other.

`CC1CCCCN1C(=O)CSc1nc2ncccc2[nH]1` (stereo unspecified) had a solubility (kinetic) of over 43.6 µg/mL.

For the compound `O=C(Nc1ccc(F)cc1)c1ccc2nsnc2c1`, the kinetic solubility stood at 5.4 µg/mL (≈ 19.8 µM).

In turn, `COc1cccc(N2CC(C)Cn3c2nc2c3c(=O)[nH]c(=O)n2C)c1` (stereo unspecified) came in with a kinetic solubility of 22.7 µg/mL (≈ 66.5 µM).

`O=C1Nc2ccccc2O/C1=C\c1ccccc1Br` yielded a solubility (kinetic) of 3.3 µg/mL (≈ 10.4 µM).

`CN1CCN(NS(=O)(=O)c2ccc(Cl)cc2)CC1` yielded a kinetic solubility of over 43.5 µg/mL.

Compound `CC(C)c1nc2oc3c(N(C)CCO)ncnc3c2c2c1CCC2` showed a kinetic solubility of 0.9 µg/mL (≈ 2.76 µM).

`CCc1cc2c(=O)oc(-c3ccc(F)cc3)nc2s1` gave a kinetic solubility of under 0.6 µg/mL.

With `Cc1ccc(S(=O)(=O)NCCOc2nc(N(C)C)nc(N(C)C)n2)cc1`, the solubility (kinetic) amounted to 52.8 µg/mL (≈ 139 µM).

In general, solubility (kinetic) refers to the concentration staying in solution when a stock, usually in DMSO, is diluted into the medium.
